Assay results as given in ChEMBL document CHEMBL1123941, “Potential antisecretory antidiarrheals. 1. Alpha 2-adrenergic aromatic aminoguanidine hydrazones” (1988).
Activity calls are given as the source filed them. The rule behind the calls is not given here.

How the values were obtained:
[1] = species on record: Rattus norvegicus; assay: Inhibition of cholera toxin induced intestinal fluid secretion in rat; I= Inactive; type: functional, organism-based
[2] = species on record: Oryctolagus cuniculus; assay: Inhibition of increase in intestine potential difference caused by diarrhea-inducing secretagogues in rabbits using 'Using chamber'; Inactive; type: functional, organism-based
[3] = species on record: Rattus norvegicus; assay: Inhibition of cholera toxin induced intestinal fluid secretion in rat; type: functional; conditions: read-out: ID50 (the source's name)
[4] = species on record: Oryctolagus cuniculus; assay: Inhibition of increase in intestine potential difference caused by diarrhea-inducing secretagogues in rabbits using 'Using chamber'; Active 1.0x 10e-6 M; type: functional, organism-based
[5] = species on record: Oryctolagus cuniculus; assay: Inhibition of increase in intestine potential difference caused by diarrhea-inducing secretagogues in rabbits using 'Using chamber'; Active at 1.0 x 10e-6 M; type: functional, organism-based
[6] = species on record: Oryctolagus cuniculus; assay: Inhibition of increase in intestine potential difference caused by diarrhea-inducing secretagogues in rabbits using ''Using chamber''; Active at 1.1 x 10e-5 M; type: functional, organism-based

SMILES: N=C(N)N/N=C1\CCc2ccccc21
- ID50 [1]: inactive

SMILES: Cc1cc(C)c(/C=N/N=C(N)N)c(C)c1
- inhibition [2]: inactive
- ED50 [3]: 16.6 mg/kg

SMILES: Cc1cc(/C=N/N=C(N)N)cc(C)c1O
- inhibition [2]: inactive
- ID50 [1]: inactive

SMILES: N=C(N)N/N=C/c1cccc2ccccc12
- inhibition [2]: inactive
- ED50 [3]: 34.6 mg/kg

SMILES: Cc1c(N)cc(N)c(C)c1/C=N/N=C(N)N
- ID50 [1]: inactive

SMILES: Cc1c(N)cccc1/C=N/N=C(N)N
- inhibition [2]: inactive
- ID50 [1]: inactive

SMILES: CC1CCc2ccccc2/C1=N/N=C(N)N (stereo unspecified)
- ID50 [1]: inactive

SMILES: Cc1ccccc1/C=N/N=C(N)N
- inhibition [2]: inactive
- ID50 [1]: inactive

SMILES: N=C(N)N/N=C/c1ccnc2ccccc12
- inhibition [2]: inactive
- ID50 [1]: inactive

SMILES: COc1cccc2c1CCC/C2=N\N=C(N)N
- ID50 [1]: inactive

SMILES: COc1ccc2c(c1)CCC/C2=N\N=C(N)N
- ED50 [3]: 20.5 mg/kg

SMILES: COc1ccc2c(c1)/C(=N/N=C(N)N)CCC2
- ID50 [1]: inactive

SMILES: Cc1ccc(N)cc1/C=N/N=C(N)N
- ID50 [1]: inactive

SMILES: N=C(N)N/N=C/c1c(Cl)cccc1Cl [GUANABENZ]
- inhibition [4]: Active
- ED50 [3]: 1.3 mg/kg

SMILES: Cc1cccc(C)c1/C=N/N=C(N)N
- inhibition [5]: Active at 1.0 x 10e-6 M
- ED50 [3]: 1.6 mg/kg

SMILES: Cc1cccc(C)c1/C=N/NC1=NCCN1
- ED50 [3]: 7.9 mg/kg

SMILES: N=C(N)N/N=C1\CCCc2ccccc21
- inhibition [2]: inactive
- ED50 [3]: 30.6 mg/kg

SMILES: C/C(=N\N=C(N)N)c1c(C)cccc1C
- inhibition [6]: Active at 1.1 x 10e-5 M
- inhibition [2]: inactive
- ED50 [3]: 13.3 mg/kg
- ID50 [1]: inactive

SMILES: N=C(N)N/N=C/c1ccc2ccccc2c1
- inhibition [2]: inactive
- ID50 [1]: inactive

SMILES: COc1cc(C)c(/C=N/N=C(N)N)c(C)c1
- inhibition [2]: inactive
- ED50 [3]: 27 mg/kg

SMILES: Cc1cc(O)cc(C)c1/C=N/N=C(N)N
- inhibition [2]: inactive
- ED50 [3]: 3.4 mg/kg
